# Laboratory results reported in patent US20210008142A1, “PREPARATION AND USES OF SPINOSIN-Na FROM ZIZIPHI SPINOSAE SEMEN” (Shanxi University, priority 2019, published 2021).
# Read-outs that look alike come from different tables or passages of the source.
# Experiments:
# [1] = tested on: Colon cancer cell line HCT116; assay: MTT assay, tumor cell proliferation; format: cell-based; details: 48 h; for IC50: HCT-116, MTT
# Method: (§1) Colon cancer cell line HCT116, cervical cancer cell line Hela, breast cancer cell MCF-7, liver cancer cell HepG2 and normal colonic epithelial cell line FHC in the logarithmic phase were harvested and respectively made into a suspension. After counted, the suspensions were adjusted to 6000 cells/100 μL, and then 100 μL, of respective suspensions were seeded into a 96-well plate, and cultured at 37° C. and 5% CO2 overnight. After that, the culture medium was discarded, and the wells were respectively added with culture mediums containing different concentrations of spinosin-Na, such that final concentrations of the spinosin-Na were respectively 50, 100, 150, 200 and 250 μg/mL. 5 parallel wells were set for each concentration treatment. The cells were continuously cultured in the incubator for 48 h. After that, the culture medium was discarded, and the cells were washed twice with PBS, added with 20 μL of 5.0 mg/mL MTT and continuously cultured for 4 h. The culture medium was discarded, and respective wells were added with 150 μL of DMSO to dissolve formazan crystals produced by living cells. The plate was shaken on a shaker for 10 min, and then transferred to a microplate reader for the measurement of absorbance at 570 nm.
# (§2) The antitumor activity of different concentrations of spinosin (100, 200, 300, 400, 500 μg/mL) was measured by the same method described above.
# [2] = tested on: cervical cancer cell line Hela; assay: MTT assay, tumor cell proliferation; format: cell-based; details: 48 h; for IC50: MTT
# Method: as §1, §2
# [3] = spinosin prepared by the existing methods; cited from earlier work
# breast cancer cell MCF-7 = assay: MTT assay, tumor cell proliferation; format: cell-based; details: 48 h
# Method: as §1, §2
# liver cancer cell HepG2 = assay: MTT assay, tumor cell proliferation; format: cell-based; details: 48 h
# Method: as §1, §2
# [4] = tested on: normal colonic epithelial cell line FHC; assay: MTT assay, normal cell proliferation; format: cell-based; details: 50-250 μg/mL, 48 h
# Method: as §1, §2
# [5] = tested on: cervical cancer cells Hela; assay: Annexin V/PI flow cytometry apoptosis; format: cell-based; details: 48 h
# Method: (§3) HCT116 and Hela cells in the logarithmic phase were harvested, digested with 0.25% trypsin, and seeded into a 6-well cell culture plate at a density of 1×10^5 cells per petri dish. The cells were cultured at 37° C. and 5% CO2 in an incubator overnight. After the cell adhesion was observed, the culture medium was replaced, and the dishes were respectively added with different concentrations of spinosin-Na. At the same time, a blank control was set, and each concentration treatment was performed in triplicate. The cells were continuously cultured in the incubator under the same conditions for 48 h. After that, the adherent cells were digested with 0.25% trypsin followed by centrifugation at 1,000 rpm for 5 min. The supernatant was discarded, and the cells were washed twice with PBS. The cells were suspended with 200 μL of a mixture of Annexin V and Binding buffer and reacted at 4° C. in the dark for 30 min. 300 μL of a mixed solution of PI and Binding buffer was added to each sample 5 min before the test. The double-stained cells were detected by flow cytometry to identify normal cells, early apoptotic cells, late apoptotic cells and necrotic cells, determining the apoptosis rate. […]
# [6] = tested on: colon cancer cells HCT116; assay: Annexin V/PI flow cytometry apoptosis; format: cell-based; details: HCT116, 48 h
# Method: as §3
# Water solubility = format: physicochemical
IC50 [1] [µg/mL],IC50 [2] [µg/mL],"IC50 (breast cancer cell MCF-7; MCF7, MTT) [µg/mL]","IC50 (liver cancer cell HepG2; HepG2, MTT) [µg/mL]",water solubility (Water solubility),Compound,water solubility [3],"proliferation of tumor cells ([1]; HCT116, 50-250 μg/mL)","proliferation of tumor cells (breast cancer cell MCF-7; MCF-7, 50-250 μg/mL)",proliferation of tumor cells ([2]; 50-250 μg/mL),"proliferation of tumor cells (liver cancer cell HepG2; HepG2, 50-250 μg/mL)",effect on proliferation of normal cells [4],apoptosis of tumor cells [5],apoptosis of tumor cells [6]
732.71 ± 18.97,687.60 ± 2132,,,,"COc1cc2oc(-c3ccc(O)cc3)cc(=O)c2c(O)c1[C@@H]1O[C@H](CO)[C@@H](O)[C@H](O)[C@H]1O[C@@H]1O[C@H](CO)[C@@H](O)[C@H](O)[C@H]1O [Spinosin, spinosin]",poor water-solubility,,,,,,,
147.20 ± 4.65,178.41 ± 6.83,291.79 ± 10.49,444.08 ± 15.21,good water solubility,spinosin-Na,,significantly inhibit the proliferation,significantly inhibit the proliferation,significantly inhibit the proliferation,significantly inhibit the proliferation,no significant effect,significantly induce the apoptosis,significantly induce the apoptosis
